Experiment [1] deals with T1, rat V2 receptor (rV2R) (Rattus norvegicus, UniProt Q00788).
T1 construct: expressed in transfected cells; host or cells: HEK-293
Nature of the experiment: Agonist transcriptional reporter gene assay, rat V2 receptor. The class given is cell-based. The conditions noted are these: rV2, HEK-293 reporter gene. Background: A reporter such as luciferase makes a cellular process visible.

The test system of another experiment is sheep model of sepsis. Nature of the experiment: Sheep model of sepsis (smoke inhalation + Pseudomonas aeruginosa). The class given is in vivo. The conditions noted are these: septic sheep, continuous i.v. infusion titrated, 24 hours. The text has this:
A. Description of Model & Experimental Design • Septic shock is caused by hypotension secondary to vasodilation. […] The combination of a selective V2 receptor agonist, desmopressin, and a selective V1a receptor agonist models to some extent the non-selective V1a/V2 receptor agonist activity of vasopressin and other related compounds having non-selective activity.
Method: Sheep are surgically instrumented ahead of the study. After obtaining baseline data, they are anesthetized and insufflated with 48 breaths of cotton smoke and 10^11 colony forming units of Pseudomonas aeruginosa instilled into their airways via a tracheostomy. The sheep are then placed on a ventilator and awakened for the study. They are resuscitated with Ringer's solution to maintain left atrial and central venous pressures and hematocrit at baseline levels. If, despite fluid management, mean arterial pressure (MAP) falls by 10 mm Hg from baseline, a continuous intravenous infusion of AVP, the selective V1a receptor agonist, or the selective V1a receptor agonist+the selective V2 agonist desmopressin is initiated and titrated to keep MAP within this limit, except in a septic control group and in a non-septic sham group. Parameters measured include Mean Arterial Pressure (a measure of vasodilation/hypotension) and Fluid Balance (a measure of vascular leak).
Additional information about sepsis model and method available in Murakami K, Bjertnaes L T, Schmalstieg F C, McGuire R, Cox R A, Hawkins H K, Herndon D N, Traber L D, Traber D L (2002): A novel animal model of sepsis after acute lung injury in sheep. Crit. Care Med, 30:2083-2090.

For experiment [2], the target named is T2, human V1a receptor (hV1aR) (Homo sapiens, UniProt P37288).
T2 construct: expressed in transfected cells; host or cells: HEK-293
T2 sequence (P37288 whole entry): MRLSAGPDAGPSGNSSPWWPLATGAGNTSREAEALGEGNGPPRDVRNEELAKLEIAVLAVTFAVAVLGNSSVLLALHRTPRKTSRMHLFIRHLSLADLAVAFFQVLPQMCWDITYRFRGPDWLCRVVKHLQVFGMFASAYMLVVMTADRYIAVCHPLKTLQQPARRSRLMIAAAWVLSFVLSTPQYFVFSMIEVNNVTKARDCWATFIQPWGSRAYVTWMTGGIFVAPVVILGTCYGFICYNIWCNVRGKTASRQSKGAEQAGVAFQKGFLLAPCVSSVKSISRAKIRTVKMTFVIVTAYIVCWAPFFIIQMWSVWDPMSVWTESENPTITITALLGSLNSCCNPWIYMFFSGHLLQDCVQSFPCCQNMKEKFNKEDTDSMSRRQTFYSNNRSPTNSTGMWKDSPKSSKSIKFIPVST
As to the kind of experiment: Agonist transcriptional reporter gene assay, human V1a receptor. The conditions noted are these: hV1a, HEK-293 reporter gene; for EC50: 5 hours. The class given is cell-based.

The target in experiment [3] is T3, human V2 receptor (hV2R) (Homo sapiens, UniProt P30518).
T3 construct: expressed in transfected cells; host or cells: HEK-293
T3 sequence (P30518 whole entry): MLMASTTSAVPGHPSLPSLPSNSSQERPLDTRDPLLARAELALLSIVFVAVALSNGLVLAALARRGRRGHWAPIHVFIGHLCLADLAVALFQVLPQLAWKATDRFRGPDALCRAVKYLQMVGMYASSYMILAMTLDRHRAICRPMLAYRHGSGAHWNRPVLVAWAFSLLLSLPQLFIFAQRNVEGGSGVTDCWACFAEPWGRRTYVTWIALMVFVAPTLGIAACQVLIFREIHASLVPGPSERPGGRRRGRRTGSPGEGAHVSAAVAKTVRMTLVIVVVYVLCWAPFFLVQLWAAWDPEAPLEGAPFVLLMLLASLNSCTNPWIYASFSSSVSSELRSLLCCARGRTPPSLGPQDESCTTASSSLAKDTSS
Nature of the experiment: Agonist transcriptional reporter gene assay, human V2 receptor. The conditions noted are these: hV2, HEK-293 reporter gene; for EC50: 5 hours. The class given is cell-based.

Experiment [4] has as its target T4, rat V1a receptor (rV1aR) (Rattus norvegicus, UniProt P30560).
T4 construct: expressed in transfected cells; host or cells: HEK-293
Nature of the experiment: Agonist transcriptional reporter gene assay, rat V1a receptor. The class given is cell-based. The conditions noted are these: rV1a, HEK-293 reporter gene.

The target in experiment [5] is T3, human V2 receptor (hV2R). Nature of the experiment: Antagonist transcriptional reporter gene assay, human V2 receptor. The class given is cell-based. The conditions noted are these: hV2, HEK-293 reporter gene, vs AVP. As to the method:
(§1) Agonist activity of compounds on the human V2 receptor (hV2R) and the rat V2 receptor (rV2R) was determined in a transcriptional reporter gene assay in which HEK-293 cells were transiently transfected with either the human or rat V2 receptor, and a reporter DNA containing cyclic-AMP responsive promoter elements regulating expression of firefly luciferase. See Castarion, M. J., Spevak, W., Biochem Biophys Res Commun.1994 Jan.
(§2) Antagonist activity of compounds on the human V2 receptor (hV2R) and the rat V2 receptor (rV2R) was determined in a transcriptional reporter gene assay as in section III.A; see Castañón, M. J. et al. supra. […] Ki values were calculated from IC50 values.

The target in experiment [6] is T1, rat V2 receptor (rV2R). As to the kind of experiment: Antagonist transcriptional reporter gene assay, rat V2 receptor. The conditions noted are these: rV2, HEK-293 reporter gene, vs AVP; for Ki: Ki calculated from IC50, read-out: Geomean Ki. The class given is cell-based. As to the method: as §1, §2
The target in experiment [7] is T4, rat V1a receptor (rV1aR). As to the kind of experiment: Antagonist transcriptional reporter gene assay, rat V1a receptor. The class given is cell-based. The note with it: rV1a, HEK-293 reporter gene, vs AVP; for Ki: Ki calculated from IC50, read-out: Geomean Ki. Here is the method:
(§3) Agonist activity of compounds on the human V1a receptor (hV1aR) and the rat V1a receptor (rV 1 aR) was determined in a transcriptional reporter gene assay in which HEK-293 cells were transiently co-transfected with either the human or rat V1a receptor, and a reporter DNA containing intracellular calcium responsive promoter elements regulating expression of firefly luciferase.
(§4) Antagonist activity of compounds on the human V1a receptor (hV1aR) and the rat V1a receptor (rV 1 aR) was determined in a transcriptional reporter gene assay as in section III.A; see Boss, V. et al. supra. […] Ki values were calculated from IC50 values.

Experiment [8] has as its target T2, human V1a receptor (hV1aR). Nature of the experiment: Antagonist transcriptional reporter gene assay, human V1a receptor. The class given is cell-based. The note with it: hV1a, HEK-293 reporter gene, vs AVP. Here is the method: as §3, §4
In experiment [9] the test system is venular microvessels in rat mesentery. Nature of the experiment: Rat mesenteric post-capillary venule permeability (hydraulic conductivity Lp, PAF). The note with it: PAF 10 nM. As to the method: We tested the hypothesis that the selective V2 receptor agonist desmopressin would potentiate the increase in microvessel permeability induced by platelet activating factor [PAF], an inflammatory mediator involved in sepsis.
Method: Individual venular microvessels in rat mesentery were cannulated and perfused with mammalian Ringer containing 10 mg/ml albumin to measure hydraulic conductivity (Lp) by the modified Landis technique. The vessels were then exposed to PAF (10 nM) with monitoring of hydraulic conductivity (Lp). The same vessels are then exposed to a selective V2 receptor agonist, desmopressin, followed by a second exposure to PAF with monitoring of hydraulic conductivity (Lp).
Additional information about microvascular permeability model and method available in Curry, FE, “The Measurement of Hydraulic Conductivity”, Microcirculatory Technology, Academic Press, 1986, pp 429-446.

The mark [10] stands for this setting: Ki calculated from IC50, read-out: Geomean Ki.

Entries after “also recorded” stand apart in the source; their conditions may differ. Positions of bridges follow the written chain, without caps; N, C: chain ends. Residues, ends and D or L forms follow the SMILES beside them.

For orientation: EC50 means the concentration needed to bring the measured effect to its halfway point. What is called Ki is the equilibrium dissociation constant of an inhibitor or competing ligand from its target.

T1 sequence (Q00788 whole entry): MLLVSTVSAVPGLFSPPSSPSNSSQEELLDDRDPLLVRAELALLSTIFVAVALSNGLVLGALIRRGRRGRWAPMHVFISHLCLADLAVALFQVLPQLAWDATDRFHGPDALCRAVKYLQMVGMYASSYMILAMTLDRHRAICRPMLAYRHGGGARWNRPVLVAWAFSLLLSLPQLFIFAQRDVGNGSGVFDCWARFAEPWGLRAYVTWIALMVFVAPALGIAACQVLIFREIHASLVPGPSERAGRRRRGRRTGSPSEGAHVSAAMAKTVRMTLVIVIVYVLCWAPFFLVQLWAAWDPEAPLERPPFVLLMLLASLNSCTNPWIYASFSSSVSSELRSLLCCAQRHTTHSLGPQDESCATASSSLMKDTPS
T4 sequence (P30560 whole entry): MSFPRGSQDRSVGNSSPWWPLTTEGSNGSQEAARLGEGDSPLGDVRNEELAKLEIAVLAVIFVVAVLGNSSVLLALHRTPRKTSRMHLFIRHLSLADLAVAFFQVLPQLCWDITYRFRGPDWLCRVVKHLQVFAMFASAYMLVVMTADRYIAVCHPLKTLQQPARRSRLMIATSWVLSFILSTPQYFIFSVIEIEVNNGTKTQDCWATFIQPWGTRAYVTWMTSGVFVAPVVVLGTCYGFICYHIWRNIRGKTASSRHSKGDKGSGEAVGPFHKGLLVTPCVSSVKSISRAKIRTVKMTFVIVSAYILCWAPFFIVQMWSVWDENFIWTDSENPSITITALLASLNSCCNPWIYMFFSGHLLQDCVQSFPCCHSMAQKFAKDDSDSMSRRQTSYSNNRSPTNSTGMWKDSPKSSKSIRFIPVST

The molecule `NC(=O)CC[C@@H]1NC(=O)[C@H](Cc2ccccc2)NC(=O)[C@H](Cc2ccc(O)cc2)NC(=O)[C@@H](N)CSSC[C@@H](C(=O)N2CCC[C@H]2C(=O)N[C@@H](CCCN=C(N)N)C(=O)NCC(N)=O)NC(=O)[C@H](CC(N)=O)NC1=O` [Arginine vasopressin, AVP, arginine vasopressin] had an Efficacy on rat V2 receptor (rV2R) [1] of 100%. In the experiment with sheep model of sepsis, the “Fluid retention / vascular leak (fluid balance)” value was “showed symptoms of vascular leak syndrome; also recorded: less effective” and the “Mean arterial pressure (MAP)” value is listed as “efficacious in maintaining mean arterial pressure; also recorded: less effective”.

Consider `NCCCC[C@H](NC(=O)[C@@H]1CCCN1C(=O)[C@@H]1CSSC[C@H](NC(=O)CNC(=O)CNC(=O)CN)C(=O)N[C@@H](Cc2ccc(O)cc2)C(=O)N[C@@H](Cc2ccccc2)C(=O)N[C@@H](CCC(N)=O)C(=O)N[C@@H](CC(N)=O)C(=O)N1)C(=O)NCC(N)=O` [H-Gly3-LVP, terlipressin, terlipressin] (H-GGGCYFQNCPKG-NH2; disulfide 4-9), for which, in experiment [2], the Efficacy was 66% and a half-maximal effect (EC50) was put at 124 nM. At human V2 receptor (hV2R) [3], this molecule showed an Efficacy of 79% and an EC50 of 121 nM.

With `NCCCC[C@H](NC(=O)[C@@H]1CCCN1C(=O)[C@@H]1CSSC[C@H](N)C(=O)N[C@@H](Cc2ccc(O)cc2)C(=O)N[C@@H](Cc2ccccc2)C(=O)N[C@@H](CCC(N)=O)C(=O)N[C@@H](CC(N)=O)C(=O)N1)C(=O)NCC(N)=O` [Lysine Vasopressin, LVP, lysine vasopressin], the Efficacy in [2] is reported as 98%; on rat V2 receptor (rV2R) [1], 99%; at rat V1a receptor (rV1aR) [4] it was 99%; on human V2 receptor (hV2R) [3] it was 92%. Further, the EC50 in experiment [2] is 0.94 nM; on rat V2 receptor (rV2R) [1] (5 hours), 1.11 nM; at rat V1a receptor (rV1aR) [4] (5 hours) it was 0.2 nM; at human V2 receptor (hV2R) [3], 0.28 nM.

`Cc1nc2c([nH]1)-c1ccccc1N(C(=O)c1ccc(NC(=O)c3ccccc3-c3ccccc3)cc1)CC2` [conivaptan]: the “Efficacy Antag” value is reported as 92% at human V2 receptor (hV2R) [5], 97% at rat V2 receptor (rV2R) [6], 99% on rat V1a receptor (rV1aR) [7] and 81% in [8].

On to `NC(=O)CC[C@@H]1NC(=O)[C@H](Cc2ccccc2)NC(=O)[C@H](Cc2ccc(O)cc2)NC(=O)CCSSC[C@@H](C(=O)N2CCC[C@H]2C(=O)N[C@H](CCCN=C(N)N)C(=O)NCC(N)=O)NC(=O)[C@H](CC(N)=O)NC1=O` [desmopressin], for which the “Fluid retention / vascular leak (fluid balance)” value with sheep model of sepsis is listed as “decreased the effectiveness of the V1a agonist to the level of AVP”. Also, the “Mean arterial pressure (MAP)” value with sheep model of sepsis is “decreased the effectiveness of the V1a agonist to the level of AVP”. In addition, the “peak Lp with PAF in presence of desmopressin relative to peak Lp with PAF alone” value in experiment [9] (desmopressin 10 pM for 40 minutes) is listed as “not increased”; in [9] (desmopressin 30 pM for 40 minutes, ±0.4 SEM, n=8), 2.1 fold; in experiment [9] (desmopressin 100 pM for 40 minutes, ±0.9 SEM, n=5), 2.8 fold.

For the molecule `Cc1ccccc1C(=O)Nc1ccc(C(=O)N2CCCC(N(C)C)c3ccccc32)cc1` (stereo not drawn) [mozavaptan], the “Efficacy Antag” value came out at 107% on human V2 receptor (hV2R) [5], 85% on rat V2 receptor (rV2R) [6], 40% at rat V1a receptor (rV1aR) [7] and 85% in experiment [8].

As for `CCOc1ccc2c(c1)C1(CCC(OCCN3CCOCC3)CC1)C(=O)N2S(=O)(=O)c1ccc(C(=O)NC(C)(C)C)cc1OC` (stereo not drawn) [satavaptan], the “Efficacy Antag” value was 109% on human V2 receptor (hV2R) [5], 100% at rat V2 receptor (rV2R) [6], 6% at rat V1a receptor (rV1aR) [7] and 10% in experiment [8]. Further, the inhibition constant Ki was 1.5 nM at human V2 receptor (hV2R) [5] (setting [10]), 0.6 nM at rat V2 receptor (rV2R) [6], more than 338 nM on rat V1a receptor (rV1aR) [7] and more than 950 nM in [8] (setting [10]).

Take `Cc1ccccc1C(=O)Nc1ccc(C(=O)N2CCCC(O)c3cc(Cl)ccc32)c(C)c1` (stereo not drawn) [tolvaptan]: the “Efficacy Antag” value at human V2 receptor (hV2R) [5] worked out at 97%; on rat V2 receptor (rV2R) [6], 102%; on rat V1a receptor (rV1aR) [7], 26%; in [8] it was 101%. Also, the Ki on rat V2 receptor (rV2R) [6] is 3.3 nM; at rat V1a receptor (rV1aR) [7], more than 338 nM.

“[Pmp1,D-Ile2,Ile4,Arg8]vasopressin [[Pmp1, D-Ile2, Ile4]AVP]”: the “Efficacy Antag” value on rat V2 receptor (rV2R) [6] is 97%.

On to “[Pmp1,D-Ile2,Ile4,Arg8]vasopressin-(1-8)-OH [[Pmp1, D-Ile2, Ile4]AVP-(1-8)-OH]”, for which the “Efficacy Antag” value on rat V2 receptor (rV2R) [6] is 105%.

Consider “ornithine vasopressin [[Orn8] Vasopressin, OVP]”, for which the Efficacy at rat V2 receptor (rV2R) [1] turned out to be 111%.

Values taken from patent publication US20100311642A1, “USE OF V2 RECEPTOR ANTAGONISTS IN COMBINATION WITH VASO PRESSINERGIC AGNOSTS” (Ferring B.V., priority 2007, published 2010).
